Measurements: PMC11942905, “Identification of a Selective Inhibitor of Human NFS1, a Cysteine Desulfurase Involved in Fe-S Cluster Assembly, via Structure-Based Virtual Screening” (International Journal of Molecular Sciences, 2025)

Assays:
NFS1 K157A = molecular target: T1, NFS1 K157A (Homo sapiens, UniProt Q9Y697, K157A); test: H2S-producing assay, NFS1 K157A mutant; format: biochemical
T1 construct: His tag (N); made in house; host or cells: E. coli BL21(DE3)
Experimental: (§1) To further validate the accuracy of the simulated results, the residues Cys158, Glu387, Lys157, and His156 were mutated to alanine using site-directed mutagenesis.
(§2) For the expression and purification of NFS1Δ1-55/ISD11 in E. coli, the plasmid pNFS1-ISD11 was transformed into BL21(DE3) cells. The cells were grown at 37 °C in 1 L cultures of LB medium containing chloramphenicol (50 μg/ml) until the optical density at 600 nm (OD600) reached 0.6–0.8. Protein expression was induced by adding 0.1 mM isopropyl β-D-1-thiogalactopyranoside (IPTG), followed by an additional 12 h of incubation at 25 °C. The cells were harvested by centrifugation at 8000 rpm for 10 min at 4 °C, then resuspended in lysis buffer containing 50 mM phosphate-buffered saline (PBS, pH 7.4), 500 mM NaCl, 100 mg/L lysozyme, 30 mM imidazole, and 1 mM phenylmethanesulfonyl fluoride (PMSF). The resuspended cells were incubated on ice for 1 h, followed by sonication using an Ultrasonic Cell Disruption System (Scientz, Ningbo, China). The supernatant was obtained by centrifugation at 12,000 rpm for 30 min at 4 °C and was loaded onto a HisTrap FF column (GE Healthcare, Chicago, MA, USA) pre-equilibrated with lysis buffer. […] The protein concentration was measured using a BCA protein assay reagent kit (TransGen Biotech, Beijing, China).

NFS1 C158A = molecular target: T2, NFS1 C158A (Homo sapiens, UniProt Q9Y697, C158A); test: H2S-producing assay, NFS1 C158A mutant; format: biochemical
T2 construct: His tag (N); made in house; host or cells: E. coli BL21(DE3)
T2 sequence (Q9Y697 56-457 C158A): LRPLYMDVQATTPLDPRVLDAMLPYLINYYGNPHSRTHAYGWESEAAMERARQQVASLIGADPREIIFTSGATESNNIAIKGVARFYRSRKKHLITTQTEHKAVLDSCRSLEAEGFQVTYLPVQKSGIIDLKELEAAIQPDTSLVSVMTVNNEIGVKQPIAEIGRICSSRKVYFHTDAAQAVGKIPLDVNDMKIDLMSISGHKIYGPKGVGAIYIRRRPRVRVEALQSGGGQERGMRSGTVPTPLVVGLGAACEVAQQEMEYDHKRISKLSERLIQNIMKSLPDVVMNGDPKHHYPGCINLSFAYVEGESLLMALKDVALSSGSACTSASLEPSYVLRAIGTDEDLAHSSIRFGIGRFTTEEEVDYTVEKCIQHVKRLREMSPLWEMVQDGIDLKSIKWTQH
Experimental: as §1, §2

NFS1 E387A = molecular target: T3, NFS1 E387A (Homo sapiens, UniProt Q9Y697, E387A); test: H2S-producing assay, NFS1 E387A mutant; format: biochemical
T3 construct: His tag (N); made in house; host or cells: E. coli BL21(DE3)
T3 sequence (Q9Y697 56-457 E387A): as the sequence (Q9Y697 56-457 C158A) above, with A103C, E332A counted along it
Experimental: as §1, §2

A549 cells [1] = test: CCK-8 cell viability assay, A549; format: cell-based, human
Experimental: Human bronchial epithelial cells (BEAS-2B) and human lung adenocarcinoma A549 cells were purchased from the Institute of Biochemistry and Cell Biology, Chinese Academy of Sciences (Shanghai, China). BEAS-2B and A549 cells were cultured in DMEM supplemented with 10% (v/v) fetal bovine serum and 1% (v/v) penicillin–streptomycin solution at 37 °C in a humidified atmosphere containing 5% CO2. The half-maximal inhibitory concentration (IC50) values of the selected compounds against BEAS-2B and A549 cells were determined using the CCK-8 assay. Briefly, the cells were seeded into 96-well culture plates at a density of 5 × 10^3 cells per well. After 12 h of culture, fresh medium containing varying concentrations of the selected compounds dissolved in DMSO was added for an additional 72-hour incubation. Subsequently, 10 μL of CCK-8 solution was added to each well, followed by a further 1.5-h incubation at 37 °C. The optical density at 450 nm (OD450) for each well was measured using a microplate reader. Medium containing DMSO alone was used as the control group. Cell viability was calculated as the percentage of the OD450 of the experimental group compared to that of the control group, which was set at 100%.

aconitase (ACO) = test: Aconitase activity in A549 cells; format: cell-based, human; settings: 50 µM
Experimental: The activity of succinate dehydrogenase (SDH) in cells was determined using an SDH activity assay kit (Solarbio, Beijing, China) according to the manufacturer’s instructions. The optical density at 600 nm (OD600) was measured using a multifunctional microplate reader in 96-well plates. One unit of SDH activity was defined as the amount of enzyme catalyzing the consumption of 1 nmol of 2,6-dichlorophenol indophenol per minute at 37 °C [43]. The activity of aconitase (ACO) was measured as previously described, with some modifications. The cells were washed three times with pre-cooled PBS and lysed with lysis buffer containing 50 mM of Tris-HCl (pH 8.0), 0.2% Triton X-100, 0.6 mM of MnCl2, 5 mM of citrate, and 1 mM of PMSF. The aconitase activity was measured by monitoring the formation of cis-aconitate from isocitrate at 240 nm in 50 mM of Tris-HCl (pH 8.0) containing 20 mM of DL-trisodium isocitrate at 37 °C. An extinction coefficient of 3600 M^−1 cm^−1 at 240 nm was used to calculate the cis-aconitate concentration. One unit of ACO activity was defined as the amount of enzyme catalyzing the generation of 1 nmol of cis-aconitate per minute at 37 °C.

A549 cells [2] = test: Endogenous ROS levels, DCFH-DA fluorescence; format: cell-based, human; settings: 48 h, Compound 53 50 µM, Erastin 2.5 µM, 2-AAPA 20 µM
Experimental: Endogenous ROS levels in A549 cells were detected using the fluorescent dye DCFH-DA [48, 49]. A549 cells were cultured in DMEM supplemented with 10% fetal bovine serum at 37 °C in a humidified atmosphere containing 5% CO2. […] Subsequently, the cells were washed three times with prewarmed PBS, and fresh medium containing 10 μM of DCFH-DA was added. After 30 min of incubation, the cells were washed again with prewarmed PBS, fresh medium was added, and the cells were imaged using an inverted fluorescence microscope (Leica, Wetzlar, Germany). Images of live cells were acquired in six different fields. ImageJ software was used to analyze the images.

A549 cells [3] = test: Lipid peroxide (LPO) content; format: cell-based, human; settings: 48 h, Erastin 2.5 µM, Compound 53 50 µM, 2-AAPA 20 µM, alone or combined
Experimental: A549 cells were seeded in 10 cm dishes at a density of 2 × 10^6 cells per dish and cultured until they reached 40–60% confluence. […] Lipid peroxidation (LPO) levels were measured using a Lipid Peroxide (LPO) Content Assay Kit (Solarbio, China) following the manufacturer’s instructions.

T1 sequence (Q9Y697 56-457 K157A): as the sequence (Q9Y697 56-457 C158A) above, with K102A, A103C counted along it

COc1cc(/C=N/NC(=O)COc2ccc(Cl)cc2Cl)ccc1O [Compound 53]
IC50 (NFS1 K157A): 53.2 ± 6.44 µM
IC50 (NFS1 C158A): 114 ± 3.45 µM
IC50 (NFS1 E387A): 105 ± 3.17 µM
anti-proliferative activity in the presence of Erastin (A549 cells [1]; A549 cells, Compound 53 50 µM with 2.5 µM Erastin, versus without): increased remarkably
IC50 (A549 cells [1]; Homo sapiens, A549, CCK-8, 72 h): 16.3 ± 1.92 µM
ACO activity compared to the control group (aconitase (ACO)): 51.3%
intracellular ROS levels (A549 cells [2]): did not significantly affect intracellular ROS levels
intracellular lipid peroxide (LPO) levels (A549 cells [3]): no significant changes
